Laboratory results as given in patent US7691805B2, “Antimicrobial compounds” (Neobiotics AB, priority 2004, dated 2010).
Non-standard residues stand in square brackets, D forms with d. No end group written: not given here. dPhg = N[C@@H](C(=O)O)c1ccccc1; Phg = N[C@H](C(=O)O)c1ccccc1; code Z = not defined here; Orn = NCCC[C@H](N)C(=O)O; Mpa = O=C(O)CCS

Tests used:
[1] = system: α-haemolytic Streptococci; assay: Agar well diffusion; conditions: 40 ul of 1 mg/ml in DMSO per well
Streptococcus: group A = assay: Agar well diffusion; conditions: 40 ul of 1 mg/ml in DMSO per well
poliovirus type 1 = assay type: cell-based; conditions: 0.4 mM in 1% DMSO; analysed in the same way as Cystapep 1
MRSA = assay: Growth inhibition of clinical isolates; conditions: approximately 100 strains of MRSA, several with additional resistance markers
Streptococcus: group B = assay: Agar well diffusion; conditions: 40 ul of 1 mg/ml in DMSO per well
S. pneumoniae = assay: Agar well diffusion; conditions: 40 ul of 1 mg/ml in DMSO per well
[2] = system: E. coli and other Gram-negatives; assay: Agar well diffusion; conditions: E. coli and other Gram-negatives; 40 ul of 1 mg/ml in DMSO per well
Streptococcus: group C = assay: Agar well diffusion; conditions: 40 ul of 1 mg/ml in DMSO per well
[3] = system: CNS incl. resistant and multiresistant MRSE; assay: Agar well diffusion; conditions: 40 ul of 1 mg/ml in DMSO per well
Streptococcus: group G = assay: Agar well diffusion; conditions: 40 ul of 1 mg/ml in DMSO per well
[4] = system: Staphylococci incl. multiresistant MRSA; assay: Agar well diffusion; conditions: 40 ul of 1 mg/ml in DMSO per well
[5] = system: HSV-1 F (Herpes Simplex Virus); assay: Antiviral inhibition analysis and plaque counting test in GMK AH 1 cells; assay type: cell-based; conditions: 0.4 mM in 1% DMSO; analysed in the same way as Cystapep 1
bacteria = assay: Anti-bacterial activity (tables of particularly interesting compounds); assay type: cell-based; set-up: key: + indicates that the compound show effects
virus = assay: Anti-viral activity (tables of particularly interesting compounds); assay type: cell-based; set-up: key: + indicates that the compound show effects; conditions: compounds listed by R4 or R1 residue
L. monocytogenes = assay: Agar well diffusion; conditions: 40 ul of 1 mg/ml in DMSO per well
[6] = peptide analogues and cyclic compounds
[7] = compounds listed by R4 or R1 residue

CC(C)CC(NC(=O)C(CCCNC(=N)N)NC(=O)OCc1ccccc1)C(=O)NC(CNC(=O)/C=C/c1ccccc1)Cc1ccccc1 (centres unmarked) [(Phe^4)Cp1]
antibacterial effect [1]: −
antibacterial effect (Streptococcus: group A): +
effect against polio (poliovirus type 1): found to have effect
growth inhibition of MRSA strains (MRSA): strongly inhibited in their growth
antibacterial effect (Streptococcus: group B): +
antibacterial effect (S. pneumoniae): +
antibacterial effect [2]: −
antibacterial effect (Streptococcus: group C): +
antibacterial effect [3]: +
antibacterial effect (Streptococcus: group G): +
antibacterial effect [4]: +
effect against HSV-1 [5]: found to have effect

cyclo(FRLVF[Orn]LV)
Activity Anti-bacterial (bacteria; [6]): +

CC(=O)N[C@H](Cc1ccccc1)C(=O)NCC(NC(=O)C(CC(C)C)NC(=O)C(CCCNC(=N)N)NC(=O)OCc1ccccc1)C(C)C (stereo partly drawn) [Acetyl-D-phenylalanoyl]
Activity Anti-viral (virus): +
Activity Anti-bacterial (bacteria; [7]): +

CC(=O)NC(CCCNC(=N)N)C(=O)NC(CC(C)C)C(=O)NC(CNC(=O)/C=C/c1ccccc1)C(C)C (centres unmarked) [Acetyl]
Activity Anti-bacterial (bacteria; [7]): +

CC(C)CC(NC(=O)C(CCCNC(=N)N)NC(=O)OCc1ccccc1)C(=O)NC(CNC(=O)CCc1ccccc1)C(C)C (centres unmarked) [n = 2]
Activity Anti-bacterial (bacteria; [7]): +

CC(C)CC(NC(=O)C(CCCNC(=N)N)NC(=O)OCc1ccccc1)C(=O)NC(CNC(=O)C=Cc1ccc(-c2ccccc2)cc1)C(C)C (centres unmarked) [Compound 4-phenylcinnamoyl]
Activity Anti-bacterial (bacteria; [7]): +

CC(=O)N[C@@H](Cc1ccccc1)C(=O)NCC(NC(=O)C(CC(C)C)NC(=O)C(CCCNC(=N)N)NC(=O)OCc1ccccc1)C(C)C (stereo partly drawn) [Acetyl-L-phenylalanoyl]
Activity Anti-viral (virus): +
Activity Anti-bacterial (bacteria; [7]): +

CC(C)CC(NC(=O)C(CCCNC(=N)N)NC(=O)OCc1ccccc1)C(=O)NC(CNC(=O)[C@H](O)Cc1ccccc1)C(C)C (stereo partly drawn) [Compound D-2-hydroxy-3-phenylpropionyl]
Activity Anti-bacterial (bacteria; [7]): +

Mpa-Phe-Arg-Leu-Val-Phe-Cys-NH2 ([Mpa]FRLVFC-NH2; cysteine pairing not given here) [footnote: Mpa-Phe indicates 3-phenylpropionyl]
Activity Anti-bacterial (bacteria; [6]): +

CC(C)CC(NC(=O)C(CCCNC(=N)N)NC(=O)OCc1ccccc1)C(=O)NC(CNC(=O)C=CC=Cc1ccccc1)C(C)C (centres unmarked) [5-phenylpenta-2,4-dienoyl]
Activity Anti-bacterial (bacteria; [7]): +

cyclo(Tyr-Arg-Leu-Val-Tyr-Arg-Leu-Val) (YRLVYRLV; cyclic; printed: Tyr-Arg-Leu-Val-Tyr-Arg-Leu-Val)
Activity Anti-bacterial (bacteria; [6]): +

CC(C)CC(NC(=O)C(CCCNC(=N)N)NC(=O)OCc1ccccc1)C(=O)NC(CNC(=O)[C@H](Br)Cc1ccccc1)C(C)C (stereo partly drawn) [Compound D-2-bromo-3-phenylpropionyl]
Activity Anti-bacterial (bacteria; [7]): +

CC(C)CC(NC(=O)C(CCCNC(=N)N)NC(=O)OCc1ccccc1)C(=O)NC(CNC(=O)CCl)C(C)C (centres unmarked) [Chloroacetyl]
Activity Anti-bacterial (bacteria; [7]): +

Z-Arg-Leu-Val-Phe-NH2 ({code Z}-RLVF-NH2; reading uncertain; also: printed as Z-Arg-Leu-Val-Phe-NH2)
Activity Anti-bacterial (bacteria; [6]): +

CC(C)CC(NC(=O)C(CCCNC(=N)N)NC(=O)CCc1ccccc1)C(=O)NC(CNC(=O)/C=C/c1ccccc1)C(C)C (centres unmarked) [Compound 3-phenylpropionyl]
Activity Anti-bacterial (bacteria; [7]): +

CC(C)CC(NC(=O)C(CCCNC(=N)N)NC(=O)OCc1ccccc1)C(=O)NC(CNC(=O)C#Cc1ccccc1)C(C)C (centres unmarked) [Phenylpropiolyl]
Activity Anti-bacterial (bacteria; [7]): +

Z-Arg-Leu-Val-cinnamoylamide
Activity Anti-bacterial (bacteria; [6]): +

cyclo([dPhg]RLV[dPhg]RLV)
Activity Anti-bacterial (bacteria; [6]): +

C=C(C(=O)NCC(NC(=O)C(CC(C)C)NC(=O)C(CCCNC(=N)N)NC(=O)OCc1ccccc1)C(C)C)c1ccncc1 (centres unmarked) [2-(4-pyridyl)acroyl]
Activity Anti-bacterial (bacteria; [7]): +

CC(C)CC(NC(=O)C(CCCNC(=N)N)NC(=O)OCc1ccccc1)C(=O)NC(CNC(=O)/C=C/Cc1ccccc1)C(C)C (stereo not drawn) [trans-3-benzylacroyl]
Activity Anti-bacterial (bacteria; [7]): +

cyclo([Phg]RLV[Phg]RLV)
Activity Anti-bacterial (bacteria; [6]): +

CC(C)CC(NC(=O)C(CCCNC(=N)N)NC(=O)OCc1ccccc1)C(=O)NC(CNC(=O)/C=C/c1ccccc1)C(C)C (centres unmarked) [Benzyloxtcarbonyl]
Activity Anti-bacterial (bacteria; [7]): +

cyclo(F[Orn]LVF[Orn]LV)
Activity Anti-bacterial (bacteria; [6]): +

CC(C)CC(NC(=O)C(CCCNC(=N)N)NC(=O)OCc1ccccc1)C(=O)NC(CNC(=O)[C@@H](Br)Cc1ccccc1)C(C)C (stereo partly drawn) [Compound L-2-bromo-3-phenylpropionyl]
Activity Anti-bacterial (bacteria; [7]): +

cyclo(D-Tyr-Arg-Leu-Val-D-Tyr-Arg-Leu-Val) (chain 1 [dY]RLV; chain 2 [dY]RLV; also: two chains joined into one cyclic octapeptide, head-to-tail to a chain's N/C-terminus)
Activity Anti-bacterial (bacteria; [6]): +

CC(C)CC(CNC(=O)/C=C/c1ccccc1)NC(=O)C(CC(C)C)NC(=O)C(CCCNC(=N)N)NC(=O)OCc1ccccc1 (centres unmarked) [(Leu^4)Cp1]
antibacterial effect [1]: −
antibacterial effect (Streptococcus: group A): +
effect against polio (poliovirus type 1): found to have effect
growth inhibition of MRSA strains (MRSA): strongly inhibited in their growth
antibacterial effect (Streptococcus: group B): +
antibacterial effect (S. pneumoniae): +
antibacterial effect [2]: −
antibacterial effect (Streptococcus: group C): +
antibacterial effect [3]: +
antibacterial effect (Streptococcus: group G): +
antibacterial effect [4]: +
effect against HSV-1 [5]: found to have effect

CC(C)CC(NC(=O)C(CCCNC(=N)N)NC(=O)OCc1ccccc1)C(=O)NC(CNC(=O)/C=C/c1ccccc1)C(C)C (stereo not drawn) [trans-cinnamoyl]
Activity Anti-viral (virus): +

CC(C)CC(NC(=O)C(CCCNC(=N)N)NC(=O)OCc1ccccc1)C(=O)NC(CNC(=O)/C=C/S(=O)(=O)Cc1ccccc1)C(C)C (stereo not drawn) [trans-3-benzylsulphonylacroyl]
Activity Anti-bacterial (bacteria; [7]): +

cyclo(Phe-Arg-Leu-Val-Phe-Arg-Leu-Val) (FRLVFRLV; cyclic; printed: Phe-Arg-Leu-Val-Phe-Arg-Leu-Val)
Activity Anti-bacterial (bacteria; [6]): +

CC(=O)NC(Cc1ccccc1)C(=O)NCC(NC(=O)C(CC(C)C)NC(=O)C(CCCNC(=N)N)NC(=O)OCc1ccccc1)C(C)C (centres unmarked) [(AcPhe^5)Cp1]
antibacterial effect [1]: −
antibacterial effect (Streptococcus: group A): +
growth inhibition of MRSA strains (MRSA): strongly inhibited in their growth
antibacterial effect (L. monocytogenes): +
antibacterial effect (Streptococcus: group B): +
antibacterial effect (S. pneumoniae): +
antibacterial effect [2]: −
antibacterial effect (Streptococcus: group C): +
antibacterial effect [3]: +
antibacterial effect (Streptococcus: group G): +
antibacterial effect [4]: +

CC(C)CC(NC(=O)C(CCCNC(=N)N)NC(=O)OCc1ccccc1)C(=O)NC(CNC(=O)Cc1ccccc1)C(C)C (centres unmarked) [n = 1]
Activity Anti-bacterial (bacteria; [7]): +

CC(C)CC(NC(=O)C(CCCNC(=N)N)NC(=O)Cc1ccccc1)C(=O)NC(CNC(=O)/C=C/c1ccccc1)C(C)C (centres unmarked) [Phenylacetyl]
Activity Anti-bacterial (bacteria; [7]): +

CC(C)CC(NC(=O)C(CCCNC(=N)N)NC(=O)CCCc1ccccc1)C(=O)NC(CNC(=O)/C=C/c1ccccc1)C(C)C (centres unmarked) [Compound 4-phenylbutyryl]
Activity Anti-bacterial (bacteria; [7]): +

CC(C)CC(NC(=O)C(CCCNC(=N)N)NC(=O)OCc1ccccc1)C(=O)NC(CNC(=O)[C@@H](O)Cc1ccccc1)C(C)C (stereo partly drawn) [Compound L-2-hydroxy-3-phenylpropionyl]
Activity Anti-bacterial (bacteria; [7]): +

CC(C)C(CNC(=O)/C=C/c1ccccc1)NC(=O)CNC(=O)C(CCCNC(=N)N)NC(=O)OCc1ccccc1 (centres unmarked) [(Gly^3)Cp1]
antibacterial effect [1]: −
growth inhibition of MRSA strains (MRSA): strongly inhibited in their growth
antibacterial effect (Streptococcus: group B): +
antibacterial effect (Streptococcus: group C): +
antibacterial effect [3]: +
antibacterial effect [4]: +
